# Measurements as given in patent US9724422B2, “Human lactoferrin derived peptide for use as an antigen masking agent” (Evonik Roehm GmbH, priority 2010, dated 2017).
# Legend:
# [1] = Diffusion kinetics of free hLf fragment (reference), time-correlation confocal microscopy with fluorescent labels; assay type: physicochemical; details: hLf alone as reference
# Description: (§1) 3 different classes of cell-culture and blood derived naturally glycosylated proteins were mixed together in a native, that is, physiologically similar standard electrolyte buffer with the concentration shown in the Table with the same 22-mer of the human-lactoferrin peptides described above (using Sequence […] (SEQ ID NO: 1)).
# (§2) The protein I is Albumin a blood protein fraction, known in its recombinant human version or as blood-product, protein II is a selective IgG antibody. Both from commercial sources. hLf as the reference moves as “free” in the volume element of the focus of the microscope whereas about 4% or 15% respectively of the fragment are unspecifically bound and moves slower.
# [2] = system: IgG immuno response; assay: Total IgG by ELISA in rats treated with bacterial lysate, hLf fragment or their combination; assay type: in vivo
# Description: Bacterial lysate: Klebsiella pneumoniae CECT 141; 12.000 million bacteria/mL (ten times the final concentration), Standard non-glycerinated formulation, without phenol hLF fragment, […] (SEQ ID NO: 1) oxidised form, as lyophilisate product; dosed in vials of 50 mg each, in 25 mL vials, to be reconstituted and used as stock solution for the length of the assay. Once reconstituted, keep cooled (4° C.)
# Reconstitution of the hLF stock solution was performed by reconstitution of the 50 mg hLF fragment in a vial by addition of 20 mL of PBS. It was ensured a complete, proper reconstitution to a clear, homogeneous, particle-free solution. The vial was gently shaken by repeated inversion of the closed vial. The result was the hLF-stock solution for the trial: nominal concentration 2.5 mg/mL.
# The hLF dilution for the animal trial was performed daily. For this 1 mL of the reconstituted hLF stock solution were transferred into a new 25 mL vial, followed by adding 21.5 mL of PBS and carefully mixing by repeated inversions of the closed vial to avoid foam formation. The result was the daily stock dilution, nominal concentration 0.1 mg/ml.
# 4.5 ml of the daily hLf dilution were transferred to a suitable vial (5 ml capacity or bigger), followed by adding 0.5 ml of the 12,000 million bacteria/mL bacterial lysate, and carefully mixing by repeated inversions of the closed vial to avoid foam formation. The result was 5 ml of A+B vaccine, 1200 million bacteria/ml, 0.1 mg hLf fragment/ml, ensuring the ratio 12:1.
# 4.5 ml of the daily hLf dilution were transferred to a suitable vial (5 ml capacity or bigger), followed by adding 0.5 ml of PBS and carefully mixing by repeated inversions of the closed vial and avoid foam formation. The result was 5 ml of 0.1 mg/ml hLf fragment solution.
# 0.5 ml of the bacterial lysate (12,000 million bacteria/ml) were transferred to a suitable vial (5 ml capacity or bigger), followed by adding 4.5 ml of PBS, and carefully mixing by repeated inversions of the closed vial and avoid foam formation. […]
# The parameter to be measured is total IgG. […]
# [3] = Zeta potential of particles measured with Zetasizer; assay type: physicochemical; details: PBS pH 7.4, FIG. 2
# Description: (§3) Malvern Zetasizer Nano ZS90; Size parameters:
# (§4) Material: Protein RI: 1.45 Absorption: 0.00, Dispersant: Water 25° C.: 0.8872 cP RI: 1.330; 37° C.: 0.6864 cP RI: 1.330, Cell: DTS 1060C: Clear disposable zeta cell
# (§5) Measurement: Automatic 3 runs, positioning method: seek for optimum position, automatic attention selection, analysis model: general purpose
# Zeta parameters: Dielectric constant: 78.5 at 25° C. and 74.4 at 37° C.
# Model: Smoluchowski F(KA)value: 1.5, measurement: automatic 3 runs Automatic attention selection
# (§6) Peptide oxidation: The peptide was dissolved to a concentration below 1 mM (2.75 mg/mL) in phosphate buffered saline (PBS), pH 7.4. (Ph. Eur.), e.g., 5 mg in 10 mL (=0.5 mg/mL). The solution was purged with pure oxygen for 5 minutes at 37° C. Incubate for 2 h at 37° C.
# (§7) For the bacterial lysate dilution 1 mL of bacterial cell lysate were diluted up to 10 mL with PBS pH 7.4. (Ph. Eur.).
# (§8) Attachment to the lysate particles was achieved by adding 1 ml bacterial lysate (=1.2 mg E. coli) with 0.097714286 mg hLF.
# (§9) 20 μL of a 0.5 mg/mL solution of peptide were added to 1 mL of the previously diluted vaccine (0.12 mg/mL) and incubated 2 hours under low stirring, 100-150 rpm, at 4° C., preventing any foam building
# [4] = biological target: T1, Albumin (Bos taurus, UniProt P02769); assay: Diffusion kinetics of hLf fragment mixed with protein, time-correlation confocal microscopy with fluorescent labels; assay type: binding; details: protein I
# T1 construct: purchased
# Description: as §1, §2
# [5] = system: IgG antibody; assay: as above; assay type: binding; details: protein II, selective IgG antibody
# Description: as §1, §2
# [6] = Particle size (diameter) measured with Zetasizer; assay type: physicochemical; details: PBS pH 7.4, FIG. 1
# Description: as §3, §4, §5, §6, §7, §8, §9
# T1 sequence (P02769 25-607): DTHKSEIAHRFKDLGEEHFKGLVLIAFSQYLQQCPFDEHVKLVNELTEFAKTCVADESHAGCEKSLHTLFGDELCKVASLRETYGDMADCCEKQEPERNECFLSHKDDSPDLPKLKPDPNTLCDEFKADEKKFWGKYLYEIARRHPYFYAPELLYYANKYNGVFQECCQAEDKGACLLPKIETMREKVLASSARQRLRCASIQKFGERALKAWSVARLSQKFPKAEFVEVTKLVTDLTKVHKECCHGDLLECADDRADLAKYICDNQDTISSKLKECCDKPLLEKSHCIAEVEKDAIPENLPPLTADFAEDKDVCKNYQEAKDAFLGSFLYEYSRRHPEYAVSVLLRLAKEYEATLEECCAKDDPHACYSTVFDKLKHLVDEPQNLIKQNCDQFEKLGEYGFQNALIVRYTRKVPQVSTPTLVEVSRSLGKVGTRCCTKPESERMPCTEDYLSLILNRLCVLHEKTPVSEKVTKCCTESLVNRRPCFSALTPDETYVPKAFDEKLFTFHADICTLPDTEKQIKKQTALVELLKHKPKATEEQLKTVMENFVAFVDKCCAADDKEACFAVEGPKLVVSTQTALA
sequence,measurement,setting,value
"KCFQWQRNMRKVRGPPVSCIKR (listed as Homo sapiens) [hLf, human lactoferrin derived peptide, 22-mer, used as antigen masking agent]",TauD1,[1],33 us
same,TauD2,[1],1419 us
same,f1,[1],99%
same,Variation in the IgG levels over time,"[2]; independent of the mode of administration (i.p. or intragastric), days 0-27",does not appear to induce any effect on IgG levels over time
same,IgG levels compared with hLf+extract group,"[2]; intragastric, day 6",superior IgG levels
same,IgG levels compared with control group,"[2]; intraperitoneal, day 6 to day 27",no statistically significant difference
same,Zeta potential (surface charge of particles),[3],overall positive charge
same,fragment unspecifically bound (moves slower),[4],about 4%
same,fragment unspecifically bound (moves slower),[5],~15%
same,Particle size (aggregation),[6],Aggregation is prone to occur
